Reference: US6383773B2, “Penicillin conversion” (Massachusetts Institute of Technology, priority 1998, dated 2002)

What was measured:
Type in all cases: cell-based
[1] = test system: immobilized S. clavuligerus NP1 cells; experiment: Conversion of penicillin G by immobilized cells (Example 5)
Protocol: Culture Conditions: A seed culture of S. clavuligerus mutant NP-1 was made by thawing a frozen preparation of spores and inoculating 40μl into 40 ml MST medium containing 90 mM MOPS buffer, pH 7.0, 1% starch and 3% trypticase soy broth medium without dextrose (BBL Becton Dickinson Microbiology Systems, Cockeysville, Md.) in 250 ml baffled flasks. The flasks were incubated for 2 days at 30° C. and 250 rpm. One ml of the seed culture was used as inoculum for the main culture which contained 80 ml of MST medium in 500 ml unbaffled flasks. The flasks were incubated for 24 h at 30° C. and 250 rpm.
Preparation of Resting Cells: Cells were harvested by centrifugation at 14,000×g for 15 min at 4° C. and washed twice with cold deionized water. Washed cells were resuspended in 10 ml of water giving a concentration (wet weight) of about 0.31 g/ml.
Preparation of Polyethyleneimine (PEI)-Barium Alginate Entrapped Cells: Resting cells from a one-day old culture of S. clavuligerus NP-1 (2 g wet weight) were directly resuspended in 20 ml of 1.5% (w/v) sodium alginate solution. The resulting sodium alginate-cell suspension was placed into a 10 ml plastic syringe containing a 26.6 G needle. The suspension was added drop by drop into a slowly stirring hardening solution of 2% (w/v) barium chloride containing 1% (w/v) PEI, giving beads of about 1.5-2.0 mm in diameter. […]

[2] = test system: resting S. clavuligerus NP1 cells; experiment: Penicillin G conversion by resting cells: buffer, preincubation, substrate concentration (Example 4)
Protocol: Microorganisms, Media, and Culture Conditions: S. clavuligerus mutant NP-1, described in Example 1 was used for these studies. A seed culture was made by inoculating a spore suspension (40 μl) into 40 ml MST medium in 250 ml baffled flasks, and incubating for 2 days at 30° C. and 250 rpm. One ml of the seed culture was used as inoculum for the main culture which contained 80 ml of MST medium in 500 ml unbaffled flasks. The flasks were incubated for 24 h at 30° C. and 250 rpm.
Preparation of Resting Cells: Cells were harvested by centrifugation at 14,000×g, for 15 min at 4° C. and washed twice with cold deionized water. They were resuspended in 10 ml of water.
Ring Expansion Reaction: The standard reaction mixture (10 ml) contained 0.05 M Tris-HCl pH 7.4, 8.0 mM KCl, 8.0 mM MgSO4.7H2O, 4.0 mM ascorbic acid, 1.8 mM FeSO4.7H2O, 1.28 mM α-ketoglutaric acid, 20 mg/ml penicillin G and 4.0 ml cell suspension. The order of addition of the components were as previously described (Shen et al., Enzyme Microb. Technol. 6:402-404, 1984). The reaction started when penicillin G was added to the reaction mixture which was incubated at 30° C. and 220 rpm.
Expandase Assay: Product formation was estimated by the paper disk-agar diffusion bioassay as described in example 1, using deacetoxycephalosporin G as standard. Escherichia coli strain Ess, a β-lactam supersensitive, mutant was used as the assay microorganism.

[3] = test system: resting S. clavuligerus NP1 cells; experiment: Penicillin G ring expansion by resting cells grown on alcohol (Example 3)
[4] = test system: growing S. clavuligerus NP1 cells; experiment: Conversion of penicillin G into DAOG by growing cells (Example 2)
Protocol: Media: Seed culture was prepared using 250 ml baffled flasks containing 40 ml MST medium (90 mM MOPS, 3% Trypticase Soy Broth without Dextrose, 1% soluble starch) adjusted to pH 7.0 before autoclaving. Fermentation was carried out in the same medium or in the defined medium described by Mahro and Demain (1987) containing, per liter, 5 g MOPS; 3.5 g K2 HPO4; 1 ml trace solution containing 1 mg FeSO4.7H2O, 1 mg, MnCl2.4H2O, 1 mg ZnSO4.H2O and 1 mg CaCl2; 2 g L-asparagine; 0.6 g MgSO4.7H2O; 10 g glycerol; initial pH 7.0.
Culture Conditions: For the seed culture, each flask was inoculated with 50 μl of a spore suspension (prepared and stored in 20% glycerol at −80° C.) and incubated at 30° C. for 48 h. Fermentation were conducted in 250 ml baffled flasks containing 30 ml of medium at 30° C. at 250 rpm. Fermentations were started by transferring 1.5 ml of unwashed mycelium from the seed culture and their duration was 5 days. Once a day, samples were taken for pH, biomass and antibiotic analyses. Growth was measured as dry cell weight.
Bioassay: Cephalosporin type antibiotic(s) were detected by bioassay using Escherichia coli Ess seeded in LB (1% Tryptone, 0.5% NaCl, 0.5% Yeast Extract, 0.1% Glucose) 0.8% agar medium in the presence of penicillinase (Difco Laboratories, Detroit, Mich.). This is a narrow spectrum β-lactamase that destroys all kinds of penicillins but not cephalosporins. Assays were conducted with filter paper discs saturated with 100 μl of standard (deacetoxycephalosporin G) or supernatants from the fermentation flask. The diameters of zones of growth inhibition were measured after overnight incubation at 37° C.

[5] = MST supplemented with 50 μg penicillin G/ml, after 72 hours of incubation
[6] = defined medium, 50 μg/ml penicillin G, after 48 hours
[7] = defined medium, 100 μg/ml penicillin G, after 48 hours

Q: For CC1(C)S[C@@H]2[C@H](NC(=O)Cc3ccccc3)C(=O)N2[C@H]1C(=O)O [Penicillin G, penicillin G], which “cephalosporin production” value ([1]; cells immobilized in agarose (4% w/v) and k-carrageenan (3% w/v)) is on record?
A: The value was “did not observe cephalosporin production”.

Q: What about the “ring expansion” value ([1]; resting cells entrapped in PEI-barium alginate (1.5%)) of the same molecule?
A: Its value is “able to expand penicillin G”.

Q: And the percent conversion ([2]; 0.015 mg/ml substrate, subsequent experiments)?
A: Its percent conversion is no more than 16.5%.

Q: And the percent conversion ([2]; 0.063 mg/ml of penicillin G)?
A: Its percent conversion is “about 9.0%”.

Q: And the percent conversion ([2]; 2 mg/ml of penicillin G)?
A: The percent conversion was “about 1.0%”.

Q: What about the percent conversion ([2]; 8 mg/ml of penicillin G) of the same molecule?
A: Its percent conversion is “about 0.4%”.

Q: What about the “increase of cephalosporin production versus 0.05 M Tris-HCl pH 7.4” value ([2]; 0.05 M MOPS pH 6.5 or 0.05 M HEPES pH 6.5) of the same molecule?
A: Its value is “more than two-fold”.

Q: And the “penicillin G conversion” value ([2]; cells preincubated 3 hours with Fe2+ and ascorbic acid, with or without α-ketoglutarate)?
A: Its value is “virtually eliminated”.

Q: And the “reduction of total production” value ([2]; cells preincubated 3 hours with either buffer, Fe2+, ascorbic acid, or α-ketoglutarate)?
A: The value was “about 50%”.

Q: What about the “penicillin G expansion” value ([3]; cells grown in MST medium with addition of an alcohol) of the same molecule?
A: The value was “completely inhibited”.

Q: And the “Cephalosporin Production Volumetric” value ([3]; cells grown in MST, 3 hours of reaction, 5.6 mM penicillin G)?
A: The value was 5.8 µg/mL.

Q: What about the “Cephalosporin Production Specific” value ([3]; cells grown in MST, 3 hours of reaction, 5.6 mM penicillin G, per mg DCW) of the same molecule?
A: Its value is 1.0 µg/mg.

Q: What about the cephalosporin produced [4, 5] of the same molecule?
A: The cephalosporin produced was 10.5 μg cephalosporin/ml.

Q: What about the conversion [4, 5] of the same molecule?
A: The conversion was “approximately 21%”.

Q: What about the “conversion” value ([4]; MST supplemented with 100 μg penicillin G/ml, after 96 hours) of the same molecule?
A: Its value is “the same level of conversion”.

Q: What about the cephalosporin produced [4, 6] of the same molecule?
A: Its cephalosporin produced is 4.55 μg cephalosporin/ml.

Q: What about the conversion rate [4, 6] of the same molecule?
A: The conversion rate was 9.1%.

Q: And the cephalosporin produced [4, 7]?
A: The cephalosporin produced was 10.5 μg cephalosporin/ml.

Q: And the conversion rate [4, 7]?
A: Its conversion rate is 10.5%.
